Among the test systems are DMS 273 small cell lung; XF 498 CNS; DLD-1 colon; HOP-18 NSCLC; DMS 114 small cell lung; RXF-631 renal; MDA-N; SN12K1 renal; PC-3 prostate; BT-549 breast.
What all share (assay): DTP human tumour cell line panel, 48 h

Values joined by “and” are separate entries in the source; they are usually repeats but may differ in a detail not shown here. Equal entries are not always repeated.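 Compound exposure: 48 hours, 5 concentrations, 96-well plates. Here, GI50 denotes the concentration required for 50% inhibition of growth. The concentration for full growth arrest is given as TGI.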 Some results are limits rather than exact numbers.

One may read the GI50 as the concentration at which growth is held to half of that of the control. The TGI is the concentration at which net growth stops. For `O=S(=O)([O-])[O-].[OH3+].[OH3+].[OH3+].[Ru+2].c1ccccc1`, the GI50 in the experiment with DMS 273 small cell lung, in the experiment on XF 498 CNS, in the experiment with DLD-1 colon, in the experiment on HOP-18 NSCLC and with DMS 114 small cell lung was greater than 100 µM throughout. For the same compound, the TGI in the experiment with DMS 273 small cell lung, with XF 498 CNS, in the experiment on DLD-1 colon, in the experiment on HOP-18 NSCLC and in the experiment on DMS 114 small cell lung was greater than 100 µM in each case.
For the compound `CC(C)(C)NNC(=O)/C(=C/c1ccc(Oc2ccc(Cl)c(Cl)c2)cc1)NC(=O)c1ccccc1`, the TGI with DMS 273 small cell lung was 58.3 µM; in the experiment with XF 498 CNS, greater than 100 µM; in the experiment with DLD-1 colon, greater than 100 µM; in the experiment on RXF-631 renal, greater than 100 µM; in the experiment with HOP-18 NSCLC, greater than 100 µM; with DMS 114 small cell lung it was 35.9 µM.
Regarding `CCN(CC)CCCN(c1cc(OC)cc2nccnc12)S(=O)(=O)c1ccc(C)cc1`, the TGI in the experiment on DMS 273 small cell lung, with XF 498 CNS, with DLD-1 colon, in the experiment with RXF-631 renal, with HOP-18 NSCLC and in the experiment on DMS 114 small cell lung was greater than 100 µM throughout.
In the case of `CC(=O)N(C)OC(=O)CC(=O)c1ccccc1`, the TGI with DMS 273 small cell lung, in the experiment with XF 498 CNS, in the experiment on DLD-1 colon, in the experiment with RXF-631 renal and in the experiment with DMS 114 small cell lung was greater than 100 µM throughout.
In the case of `CC(C)C(C(=O)O)N(CC1(O)OCC(O)C(O)C1O)N=O` (centres undefined), the TGI with DMS 273 small cell lung, with XF 498 CNS, in the experiment on DLD-1 colon, with RXF-631 renal and in the experiment on DMS 114 small cell lung was greater than 100 µM each time.
On to `O=C1C=CC(=O)c2c1ccc1c3ccccc3n(-c3ccccn3)c21`, for which the TGI was greater than 100 µM in the experiment with DMS 273 small cell lung; 29.3 µM with XF 498 CNS; 30.6 µM in the experiment on DLD-1 colon; 29.1 µM in the experiment with HOP-18 NSCLC; 40.2 µM in the experiment on DMS 114 small cell lung.
Consider `C/C(CN1C(=O)c2ccccc2C1=O)=N\NS(=O)(=O)c1cccc([N+](=O)[O-])c1`, for which the TGI in the experiment with DMS 273 small cell lung, in the experiment on XF 498 CNS, with DLD-1 colon, with RXF-631 renal and in the experiment with HOP-18 NSCLC was greater than 100 µM throughout.
Regarding `NC(=S)/N=C/c1c(O)c2ccccc2oc1=O`, the TGI with DMS 273 small cell lung, with XF 498 CNS, in the experiment with DLD-1 colon, with HOP-18 NSCLC and with DMS 114 small cell lung was greater than 100 µM in each case.
For `Cc1ccc(S(=O)(=O)N/N=C(\CCN2CCCC2)CC(c2ccccc2)c2c(O)c3ccccc3oc2=O)cc1` (centres undefined), the TGI with XF 498 CNS, in the experiment on DLD-1 colon, with RXF-631 renal and with HOP-18 NSCLC was greater than 100 µM in each case.
Regarding `C/C(=N\N=C(N)N)C(CN(CC(C)C)CC(C)C)C(=O)Nc1ccc(C)cc1C` (centres undefined), the TGI with DMS 273 small cell lung, in the experiment with XF 498 CNS, with DLD-1 colon, in the experiment with RXF-631 renal, in the experiment with HOP-18 NSCLC and in the experiment on DMS 114 small cell lung was greater than 100 µM in each case.
`Cc1[nH]c(=O)[nH]c(=O)c1N(CCF)CCCl`: the TGI was 828 µM in the experiment on MDA-N; 330 µM and 470 µM and 560 µM in the experiment with DMS 273 small cell lung; 679 µM and 554 µM in the experiment with XF 498 CNS; 513 µM and 703 µM and 657 µM in the experiment on SN12K1 renal; 1250 µM and 1290 µM and 830 µM with DLD-1 colon; 954 µM in the experiment with PC-3 prostate. Further, the TGI is 769 µM with BT-549 breast; 927 µM and 2060 µM and 1190 µM in the experiment on HOP-18 NSCLC; 371 µM and 771 µM and 436 µM with DMS 114 small cell lung. In addition, the GI50 in the experiment on DMS 273 small cell lung was 113 µM and 122 µM and 189 µM; in the experiment on XF 498 CNS, 334 µM and 198 µM; in the experiment on SN12K1 renal, 187 µM; with DLD-1 colon it was 303 µM and 472 µM; in the experiment on HOP-18 NSCLC, 401 µM and 719 µM and 415 µM; in the experiment on DMS 114 small cell lung it was 148 µM.
For the compound `C=CC1(C)CCC(C(C)C(=O)C(C=C(C)C)OC(C)=O)C12C(=O)Oc1ccccc1C2=O` (centres undefined), the TGI in the experiment with DMS 273 small cell lung, with XF 498 CNS, with DLD-1 colon, in the experiment on HOP-18 NSCLC and in the experiment on DMS 114 small cell lung was greater than 100 µM in each case.
With `Cn1ncc(=S)[nH]c1=S`, the TGI with DMS 273 small cell lung, with XF 498 CNS, with DLD-1 colon, in the experiment on RXF-631 renal, in the experiment on HOP-18 NSCLC and in the experiment on DMS 114 small cell lung was greater than 100 µM each time.
Consider `O=P(c1ccccc1)(c1ccccc1)C1CC=C(c2ccccc2)C2(CCCC2)C1` (centres undefined), for which the TGI in the experiment with DMS 273 small cell lung was greater than 100 µM; in the experiment on XF 498 CNS, greater than 100 µM; in the experiment on DLD-1 colon, greater than 100 µM; in the experiment with RXF-631 renal, greater than 100 µM; in the experiment with HOP-18 NSCLC it was 76.9 µM; in the experiment with DMS 114 small cell lung it was greater than 100 µM.
Regarding `CN(C)CCCCN1CCc2c(n(C)c3ccccc23)C1=O`, the TGI was 18.3 µM and 34.2 µM in the experiment with MDA-N; greater than 100 µM with DMS 273 small cell lung; 43.6 µM in the experiment with XF 498 CNS; greater than 100 µM with DLD-1 colon; greater than 100 µM with PC-3 prostate; > 61.5 µM and 95.3 µM in the experiment with BT-549 breast. For the same compound, the TGI with HOP-18 NSCLC and in the experiment with DMS 114 small cell lung was greater than 100 µM throughout. The GI50 in the experiment with PC-3 prostate was 33 µM and > 68.7 µM.
In the case of `COc1ccc2[nH]cc(CCNC(C)=O)c2c1`, the TGI in the experiment with DMS 273 small cell lung, with XF 498 CNS, in the experiment on DLD-1 colon, with HOP-18 NSCLC and in the experiment with DMS 114 small cell lung was greater than 100 µM in each case.
For the compound `CC(=O)N1CCC2(C=Nc3ccccc32)CC1`, the TGI in the experiment on DMS 273 small cell lung, in the experiment with XF 498 CNS, with DLD-1 colon, in the experiment with HOP-18 NSCLC and in the experiment on DMS 114 small cell lung was greater than 100 µM throughout.
Regarding `CC(=O)Nc1ccc(/C=C(\NC(=O)c2ccccc2)c2nc3ccc4c(c3[nH]2)C(=O)c2ccccc2C4=O)cc1`, the TGI with DMS 273 small cell lung, in the experiment with XF 498 CNS, in the experiment on DLD-1 colon, in the experiment with HOP-18 NSCLC and in the experiment with DMS 114 small cell lung was greater than 100 µM each time.
In the case of `CSC(=S)c1ccc(C(=S)SC)cc1`, the TGI in the experiment with DMS 273 small cell lung, in the experiment with XF 498 CNS, in the experiment with DLD-1 colon, in the experiment with RXF-631 renal, in the experiment on HOP-18 NSCLC and in the experiment on DMS 114 small cell lung was greater than 100 µM throughout.
Turning to `O=C(Nc1ccc(Cl)c(C(F)(F)F)c1)C(=O)C(C(=O)/C=C/c1ccccc1)C1OC(=O)c2ccccc21` (centres undefined), the total growth inhibition concentration (TGI) with DMS 273 small cell lung, in the experiment on XF 498 CNS, with DLD-1 colon, in the experiment on HOP-18 NSCLC and with DMS 114 small cell lung was greater than 100 µM in each case.
Take `Cc1cc2c(cc1C)NC(=O)C(NC(=O)/C=C/c1ccccc1)C=N2` (centres undefined): the TGI with DMS 273 small cell lung is greater than 100 µM; with XF 498 CNS, 99.6 µM; in the experiment on DLD-1 colon it was greater than 100 µM; in the experiment on HOP-18 NSCLC, greater than 100 µM; with DMS 114 small cell lung it was 31.1 µM.
On to `COc1cccc(N2C(=O)c3c(c4[nH]c5ccccc5c4c4ccc(C(C)(C)C)cc34)C2=O)c1`, for which the concentration for total growth inhibition (TGI) in the experiment on DMS 273 small cell lung, in the experiment with XF 498 CNS, in the experiment on DLD-1 colon, in the experiment on RXF-631 renal, in the experiment on HOP-18 NSCLC and with DMS 114 small cell lung was greater than 100 µM in each case.
For `COc1cc(Nc2cnc3cc(C(F)(F)F)ccc3n2)cc(OC)c1OC`, the TGI in the experiment on DMS 273 small cell lung, in the experiment with XF 498 CNS, with DLD-1 colon, in the experiment on RXF-631 renal and with HOP-18 NSCLC was greater than 100 µM each time.
As for `C/C(=N\NC(=S)N1CCCCCC1)c1nccnc1C`, the TGI with DMS 273 small cell lung is 11.4 µM; with XF 498 CNS, 9.89 µM; with DLD-1 colon, greater than 100 µM; in the experiment with HOP-18 NSCLC it was 76.8 µM; in the experiment with DMS 114 small cell lung, 0.0275 µM.
With `CCCCCCCCCCCCCS(=O)(=O)O`, the TGI in the experiment on XF 498 CNS, in the experiment with DLD-1 colon, in the experiment on RXF-631 renal, with HOP-18 NSCLC and with DMS 114 small cell lung was greater than 100 µM each time.
On to `Cc1ccc(NC(=O)c2[nH]c(=S)nc(N)c2-c2ccccc2C)cc1C`, for which the TGI in the experiment on DMS 273 small cell lung, in the experiment on XF 498 CNS, in the experiment with DLD-1 colon, in the experiment with HOP-18 NSCLC and in the experiment on DMS 114 small cell lung was greater than 100 µM each time.
On to `O=C1NC(=O)C(C(=O)C(=O)Nc2ccc(Br)cc2)C(=O)N1`, for which the TGI in the experiment on DMS 273 small cell lung, with XF 498 CNS, with DLD-1 colon, with RXF-631 renal, with HOP-18 NSCLC and in the experiment on DMS 114 small cell lung was greater than 100 µM in each case.
Take `O=C(CCN1CCN(c2cccc(Cl)c2)CC1)N1CCc2c([nH]c3ccccc23)C1c1cccnc1` (centres undefined): the GI50 with DMS 273 small cell lung was 6.6 µM; with DLD-1 colon, 8.09 µM; in the experiment on RXF-631 renal it was 8.64 µM. Also, the TGI in the experiment with DMS 273 small cell lung was 19.1 µM; with XF 498 CNS, 9.57 µM; in the experiment with DLD-1 colon, 25.4 µM; in the experiment on RXF-631 renal, greater than 100 µM; in the experiment on HOP-18 NSCLC it was 32.5 µM.

For the origin of these results see PubChem BioAssay (NCI).
